Measurements as given in US9604998B2, “Inhibitors of the renal outer medullary potassium channel” (MERCK SHARP & DOHME CORP., priority 2013, dated 2017).
Where a name gives a salt, the structure may show the parent alone.

Tests used:
[1] = molecular target: hROMK (hKir1.1) (Homo sapiens (Human), UniProt P48048); assay: Thallium Flux Assay (ROMK channel functional thallium flux, FLIPR-Tetra); format: cell-based; conditions: HEK293 cells stably expressing hROMK (hKir1.1); read-out: Thallium Flux IC50
[2] = molecular target: Kir1.1 (ROMK1) (Homo sapiens (Human), UniProt P48048); assay: Electrophysiology Assay (whole cell voltage clamp, IonWorks Quattro); format: cell-based; conditions: Chinese hamster ovary cells stably expressing Kir1.1; block during voltage step to 0 mV; read-out: Electrophysiology IC50
Method in brief: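 CHO cells stably expressing the channel, induced overnight with 1 mM sodium butyrate, were recorded in amphotericin-perforated patch mode. The test pulse was a 100 ms step to 0 mV from −70 mV, then a −70 to +70 mV ramp, applied before and after a 6 min compound incubation. Current amplitudes were compared.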

Sequence of hROMK (hKir1.1) (P48048 whole entry): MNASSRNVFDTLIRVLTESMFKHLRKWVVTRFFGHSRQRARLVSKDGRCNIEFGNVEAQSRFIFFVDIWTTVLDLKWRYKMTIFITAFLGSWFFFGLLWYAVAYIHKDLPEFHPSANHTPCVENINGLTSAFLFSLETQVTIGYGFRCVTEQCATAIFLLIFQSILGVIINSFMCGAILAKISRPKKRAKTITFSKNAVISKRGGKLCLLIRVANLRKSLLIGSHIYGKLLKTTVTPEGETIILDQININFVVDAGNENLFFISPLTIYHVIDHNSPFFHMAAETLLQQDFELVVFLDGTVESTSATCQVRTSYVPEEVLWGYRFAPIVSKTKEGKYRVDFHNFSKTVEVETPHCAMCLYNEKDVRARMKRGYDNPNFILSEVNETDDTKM
Sequence of Kir1.1 (ROMK1) (P48048 whole entry, species assumed): as the sequence (P48048 whole entry) above

Row | Structure (SMILES) | IC50 [1] [nM] | IC50 [2] [nM]
1 | COc1c(CCN2CCN3C[C@H](c4ccc5c(c4C)COC5=O)OC[C@H]3C2)ccc(C#N)c1F [Example 94] | 240 | 140
2 | COc1c(CCN2CCN3C[C@@H](c4ccc5c(c4C)COC5=O)OC[C@@H]3C2)ccc(C#N)c1F [Example 95] | 120 | 110
3 | COc1c(CCN2CCN3C[C@H](c4ccc5c(c4C)COC5=O)OC[C@@H]3C2)ccc(C#N)c1F [Example 96] | 210 | 80
4 | COc1cc(CCN2CCN3C[C@H](c4ccc5c(c4C)COC5=O)OC[C@H]3C2)c(F)cc1C#N [Example 97] | 350 | 280
5 | Cc1c([C@@H]2CN3CCN(CCc4cc(F)c(C#N)c(F)c4)C[C@H]3CO2)ccc2c1COC2=O [Example 98] | 170 | 90
6 | COc1cc(CCN2CCN3C[C@@H](c4ccc5c(c4C)COC5=O)OC[C@@H]3C2)cc(F)c1C#N [Example 99] | 260 | 210
7 | Cc1c([C@@H]2CN3CCN(C4CCc5cc(C#N)ccc5C4)C[C@H]3CO2)ccc2c1COC2=O (stereo partly drawn) [Example 100, (3R,9aS)-8-(6-cyano-1,2,3,4-tetrahydronaphthalen-2-yl)-3-(4-methyl-1-oxo-1,3-dihydro-2-benzofuran-5-yl)octahydropyrazino[2,1-c][1,4]oxazin-5-ium trifluoroacetate] | 30 | 210
8 | COc1cc(CCN2CCN3C[C@@H](c4ccc5c(c4C)COC5=O)NC[C@@H]3C2)ccc1C#N [Example 101, 2-Methoxy-4-(2-((7R,9aR)-7-(4-methyl-1-oxo-1,3-dihydroisobenzofuran-5-yl)hexahydro-1H-pyrazino[1,2-a]pyrazin-2(6H)-yl)ethyl)benzonitrile] | 210 | 100
9 | Cc1c([C@@H]2CN3CCN(CCc4ccc5c(c4)COC5=O)C[C@H]3CN2)ccc(F)c1C#N [Example 103] | 140 | 60
10 | Cc1c([C@H]2CN3CCN(CCc4ccc5c(c4)COC5=O)C[C@H]3CN2)ccc(F)c1C#N [Example 104] | 110 | 400
11 | Cc1c([C@@H]2CN3CCN(CCc4ccc5c(c4)COC5=O)C[C@@H]3CN2)ccc(F)c1C#N [Example 105] | 290 | 150
12 | Cc1c([C@H]2CN3CCN(CCc4ccc5c(c4)COC5=O)C[C@@H]3CN2)ccc(F)c1C#N [Example 106] | 130 | 50
13 | Cc1c([C@@H]2CN3CCN(C[C@H](O)c4ccc5c(c4)COC5=O)C[C@@H]3CN2)ccc(F)c1C#N [Example 107] | 160 | 200
14 | Cc1c([C@H]2CN3CCN(C[C@H](O)c4ccc5c(c4)COC5=O)C[C@@H]3CN2)ccc(F)c1C#N [Example 108] | 100 | 100
